Reference: patent US10414713B2, “Fatty acid compound, preparation method therefor and use therefor” (SHANGHAI INSTITUTE OF MATERIA MEDICA, CHINESE ACADEMY OF …, priority 2016, dated 2019)

Test system: primary hepatocytes of C57bl/6j mice
Experiment: Glucose output in primary hepatocytes of C57bl/6j mice
Type: cell-based
Conditions: Hepatocyte, 6 hours, mouse primary hepatocytes, corrected by protein concentration, FIG. 3, read-out: gluconeogenesis inhibition (glucose output) relative to the negative control
Experimental: 2. To Investigate the Effect of Compounds on Glucose Output in Primary Hepatocytes of C57bl/6j Mice.
(1) Test purpose: To test whether the fatty acid compounds can inhibit hepatocyte glucose output on primary hepatocytes of C57bl/6j mice.
(2) Experimental principle: Small molecule compounds act on mouse primary hepatocytes, inhibit gluconeogenesis, and then affect the glucose output of cells into the medium. The effect of compounds on gluconeogenesis is evaluated by detecting the glucose concentration in the medium after the treatment of different compounds.
(3) Detection reagent: The glucose detection kit was purchased from Shanghai Mind Bioengineering Co., Ltd.
1) the primary hepatocytes of C57bl/6j mice were isolated and inoculated into a 24-well plate at a density of 300,000 per mL. After grew adhering to the wall for 6 hours, they were replaced on serumfree highsugar medium for 12 hours. Compounds 1 to 30 prepared by the present invention (in 1‰ DMSO, 50 μM) were separately added to treat for 6 hours (1‰ DMSO as a negative control). The medium was gently mixed, 50 μL of supernatant was taken from every well, and glucose concentration was measured by a glucose oxidase assay kit.
2) The medium was discarded. The cells was washed with PBS, spin dried, added 200 μL of 250 mM sodium hydroxide solution. […] The protein concentration was determined using coomassie blue staining. […]

Question: `CCC(C)(CCCCCCC=CCCCCCCCC(C)(CC)C(=O)O)C(=O)O` (stereo not shown) [Compound 20] was tested. Which inhibition at 50 µM did it give?
Answer: > 50%
